Experimental data taken from patent US20130059920A1, “HYDROXYTYROSOL BENEFITS MUSCLE DIFFERENTIATION AND MUSCLE CONTRACTION AND RELAXATION” (DSM IP ASSETS, B.V., priority 2009, published 2013).

Tests used:
[1] = Endurance capacity, treadmill running to exhaustion after 8 weeks long-term exercise (LTE); assay type: in vivo, Sprague-Dawley rats; details: exercise (LTE) rats, 25 mg/kg/day by gavage
Experimental: Sprague-Dawley male rats were purchased from a commercial breeder (SLAC, Shanghai). The rats were housed in a temperature—(22-28° C.) and humidity—(60%) controlled animal room and maintained on a 12-h light/12-h dark cycle (light on from 08:00 a.m. to 08:00 p.m.) with free access to food and water throughout the experiments. […] rats weighing 180-200 g were used. At the beginning of experiments, male rats were selected by one week running exercise at low speed (10 m/min, 20 min/day) and those high exercise activity rats were chosen for the experiments. Rats were randomly divided into four groups: Sedentary, Sedentary with HT supplement (25 mg/kg/day), Endurance exercise and Endurance exercise with HT supplement (25 mg/kg/day). HT was administrated by gavage 45 min before exercise program for each animal. Rats were run on a motorized treadmill at a speed of 20 m/min and a grade of 5° for 1 hour per day and 6 days per week. After 8 weeks exercise, endurance capacity was measured by treadmill running to exhaustion at a speed of 30 m/min and a grade of 5°. Exhaustion was defined as the inability to maintain running and avoid sound and light irritation.

[2] = tested on: genes of calcium signaling and flux; assay: Gene chip analysis of human skeletal muscle biopsies (vastus lateralis), Human Genome U133 Plus 2.0; assay type: in vivo; details: 6 weeks, human muscle biopsy
Experimental: Three groups each n=20 were enrolled in the study. The group assignment was randomly done by subject weight across the 3 groups. Each subject received a total of 3 capsules each day over a period of 6 weeks: • Group 1—Placebo: 3 capsules with each 333 mg of modified starch • Group 2—LOW (50 mg/d hydroxytyrosol): 1 capsule with 333 mg investigational product (1 capsule with 50 mg hydroxytyrosol) and 2 capsules with each 333 mg modified starch • Group 3—HIGH (150 mg/d hydroxytyrosol): 3 capsules with each 333mg investigational product ([…])
Muscle biopsy was performed at 2 h after ingestion of the supplements as it had taken 30 min setup time before the tissue can be removed. Two skeletal muscle tissue biopsies were taken at beginning (day 1, baseline sample) of the study and at day 42. The following was assessed in skeletal muscle tissue: 1) global gene expression profile and 2) cellular factors in tissue involved in energy metabolism or other specific pathways.
A muscle biopsy (100 mg) was taken from the vastus lateralis, a thigh muscle.
The skin was cleaned with 10% povidone-iodine (Betadine Solution, Purdue Pharma L.P., Stamford, Conn.) and then anesthetized by injecting 1.5 cc of 1% Lidocaine-HCL into the skin. A 5-8 mm incision was made in the skin and subcutaneous fat, and then approximately 100 mg of muscle tissue was removed using a Bergstrom biopsy needle from the thigh musculature (Dyna Medical, London, Ont. Canada).
The biopsy was trimmed of adipose and connective tissue, weighted and separated into 25 mg and 75 mg, placed into labelled and cooled cryotubes and immediately frozen in liquid nitrogen. Samples are stored at −80° C. for subsequent analysis. The incision site will be sealed using butterfly bandages, then wrapped with a pressure pack to minimize bruising. Approximately 25 mg of muscle tissue was used to determine the effect of the olive product on the gene expression profile involved in the energy metabolism. Neither the Sponsor nor the investigator has performed genetic finger printing and has destroyed any remaining tissue after their testing has been completed.
RNA extraction from frozen tissue samples (skeletal muscle biopsies) as described above was done using Trizol method as followed:
RNA was processed using the 3′IVT Express Kit (Affymetrix, Cat. No. 901229) according to the manual.
Fragmented aRNA for each sample was hybridized onto a Human Genome U133 Plus 2.0 Gene Chip (Affymetrix, Cat. No. 900467).
All CEL files from Affymetrix were uploaded into the analysis software (Partek) using GCRMA. GCRMA is a method of converting CEL files into expression set using the Robust Multi-array Average (RMA) with the help of probe sequence and with GC-content background correction. It is a method for normalizing and summarizing probe-level intensity measurements from Affymetrix GeneChips. Three steps: Background correction, normalization, summarization.
After GCRMA preprocessing of the .CEL files, we exported the log 2-transformed expression values from Partek and imported them into the R statistics software (version 2.9.2, http://www.R-project.org). The 57 subjects for which both a pre- and a post-measurement was available were included in the analysis. We applied an ANCOVA (analysis of covariance) with the baseline measurement as covariate to each of the 54675 probesets. The aim was to compare the treatment effect between the groups, while adjusting for the individual baselines which might differ between subjects. The treatment effect between groups can thus be estimated more precisely since the subject-to-subject variability can be separated from the within-subject variability. The baseline and the end-measurements correlated well with each other within the subjects. […]

GSH and MDA in LTE rats = assay type: in vivo, Sprague-Dawley rats; details: 25 mg/kg/day, data not shown

For `OCCc1ccc(O)c(O)c1` [hydroxytyrosol, 3,4-dihydroxyphenylethanol], the “improvement of endurance capacity” value [1] was 35%, the “baseline-corrected fold-change vs placebo: ATPase, Ca++ transporting, cardiac muscle, fast twitch 1” value ([2]; 50 mg HT/d) was 1.11 and the “baseline-corrected fold-change vs placebo: ATPase, Ca++ transporting, plasma membrane 2” value ([2]; 50 mg HT/d) was 1.06. The “baseline-corrected fold-change vs placebo: ATPase, Ca++ transporting, plasma membrane 4” value ([2]; 50 mg HT/d) was 1.10, the “baseline-corrected fold-change vs placebo: ATPase, Ca++ transporting, type 2C, member 1” value ([2]; 50 mg HT/d) was 1.07 and the “baseline-corrected fold-change vs placebo: C2 calcium-dependent domain containing 3” value ([2]; 50 mg HT/d) was 1.13. For the same compound, the “baseline-corrected fold-change vs placebo: EF-hand calcium binding domain 2” value ([2]; 50 mg HT/d) was 1.09, the “baseline-corrected fold-change vs placebo: EF-hand calcium binding domain 7” value ([2]; 50 mg HT/d) was 1.00 and the “baseline-corrected fold-change vs placebo: S100 calcium binding protein A4” value ([2]; 50 mg HT/d) was 1.07. The “baseline-corrected fold-change vs placebo: S100 calcium binding protein A8” value ([2]; 50 mg HT/d) was 1.08, the “baseline-corrected fold-change vs placebo: S100 calcium binding protein A10” value ([2]; 50 mg HT/d) was 1.06 and the “baseline-corrected fold-change vs placebo: S100 calcium binding protein A13” value ([2]; 50 mg HT/d) was 1.05. For the same compound, the “baseline-corrected fold-change vs placebo: S100 calcium binding protein B” value ([2]; 50 mg HT/d) was 1.05, the “baseline-corrected fold-change vs placebo: annexin A1” value ([2]; 50 mg HT/d) was 1.11 and the “baseline-corrected fold-change vs placebo: annexin A2” value ([2]; 50 mg HT/d) was 1.13. For the same compound, the “baseline-corrected fold-change vs placebo: annexin A2 pseudogene 2” value ([2]; 50 mg HT/d) was 1.09, the “baseline-corrected fold-change vs placebo: annexin A6” value ([2]; 50 mg HT/d) was 1.06 and the “baseline-corrected fold-change vs placebo: annexin A11” value ([2]; 50 mg HT/d) was 1.04. For the same compound, the “baseline-corrected fold-change vs placebo: cadherin, EGF LAG seven-pass G-type receptor 2 (flamingo homolog, Drosophila)” value ([2]; 50 mg HT/d) was 1.08, the “baseline-corrected fold-change vs placebo: calbindin 2” value ([2]; 50 mg HT/d) was 1.06 and the “baseline-corrected fold-change vs placebo: calcineurin-like phosphoesterase domain containing 1” value ([2]; 50 mg HT/d) was 1.11. The “baseline-corrected fold-change vs placebo: calcium and integrin binding family member 2” value ([2]; 50 mg HT/d) was 0.98, the “baseline-corrected fold-change vs placebo: calcium binding protein 4” value ([2]; 50 mg HT/d) was 1.07 and the “baseline-corrected fold-change vs placebo: calcium binding protein 39” value ([2]; 50 mg HT/d) was 1.07. For the same compound, the “baseline-corrected fold-change vs placebo: calcium channel, voltage-dependent, L type, alpha 1S subunit” value ([2]; 50 mg HT/d) was 1.03, the “baseline-corrected fold-change vs placebo: calcium channel, voltage-dependent, beta 1 subunit” value ([2]; 50 mg HT/d) was 1.02 and the “baseline-corrected fold-change vs placebo: calcium channel, voltage-dependent, gamma subunit 1” value ([2]; 50 mg HT/d) was 1.03. For the same compound, the “baseline-corrected fold-change vs placebo: calcium channel, voltage-dependent, gamma subunit 6” value ([2]; 50 mg HT/d) was 1.06, the “baseline-corrected fold-change vs placebo: calcium/calmodulin-dependent protein kinase II delta” value ([2]; 50 mg HT/d) was 1.09 and the “baseline-corrected fold-change vs placebo: calcium/calmodulin-dependent protein kinase kinase 2, beta” value ([2]; 50 mg HT/d) was 1.11. For the same compound, the “baseline-corrected fold-change vs placebo: calmodulin 1 (phosphorylase kinase, delta)” value ([2]; 50 mg HT/d) was 1.14, the “baseline-corrected fold-change vs placebo: calmodulin 3 (phosphorylase kinase, delta)” value ([2]; 50 mg HT/d) was 1.09 and the “baseline-corrected fold-change vs placebo: calmodulin regulated spectrin-associated protein 1” value ([2]; 50 mg HT/d) was 1.04. The “baseline-corrected fold-change vs placebo: calnexin” value ([2]; 50 mg HT/d) was 0.98, the “baseline-corrected fold-change vs placebo: calpain 2, (m/II) large subunit” value ([2]; 50 mg HT/d) was 1.04 and the “baseline-corrected fold-change vs placebo: calpain 3, (p94)” value ([2]; 50 mg HT/d) was 0.99. For the same compound, the “baseline-corrected fold-change vs placebo: calreticulin” value ([2]; 50 mg HT/d) was 1.06, the “baseline-corrected fold-change vs placebo: protein phosphatase 3, catalytic subunit, alpha isozyme” value ([2]; 50 mg HT/d) was 1.09 and the “baseline-corrected fold-change vs placebo: regulator of calcineurin 1” value ([2]; 50 mg HT/d) was 1.07. The “baseline-corrected fold-change vs placebo: ryanodine receptor 3” value ([2]; 50 mg HT/d) was 1.23, the “baseline-corrected fold-change vs placebo: striatin, calmodulin binding protein 3” value ([2]; 50 mg HT/d) was 1.13 and the “baseline-corrected fold-change vs placebo: ATPase, Ca++ transporting, cardiac muscle, fast twitch 1” value ([2]; 150 mg HT/d) was 1.196. For the same compound, the “baseline-corrected fold-change vs placebo: ATPase, Ca++ transporting, plasma membrane 2” value ([2]; 150 mg HT/d) was 1.174, the “baseline-corrected fold-change vs placebo: ATPase, Ca++ transporting, plasma membrane 4” value ([2]; 150 mg HT/d) was 1.023 and the “baseline-corrected fold-change vs placebo: ATPase, Ca++ transporting, type 2C, member 1” value ([2]; 150 mg HT/d) was 1.080. The “baseline-corrected fold-change vs placebo: C2 calcium-dependent domain containing 3” value ([2]; 150 mg HT/d) was 1.078, the “baseline-corrected fold-change vs placebo: EF-hand calcium binding domain 2” value ([2]; 150 mg HT/d) was 1.080 and the “baseline-corrected fold-change vs placebo: EF-hand calcium binding domain 7” value ([2]; 150 mg HT/d) was 1.075. The “baseline-corrected fold-change vs placebo: S100 calcium binding protein A4” value ([2]; 150 mg HT/d) was 1.114, the “baseline-corrected fold-change vs placebo: S100 calcium binding protein A8” value ([2]; 150 mg HT/d) was 1.056 and the “baseline-corrected fold-change vs placebo: S100 calcium binding protein A10” value ([2]; 150 mg HT/d) was 1.045. The “baseline-corrected fold-change vs placebo: S100 calcium binding protein A13” value ([2]; 150 mg HT/d) was 1.064, the “baseline-corrected fold-change vs placebo: S100 calcium binding protein B” value ([2]; 150 mg HT/d) was 1.019 and the “baseline-corrected fold-change vs placebo: annexin A1” value ([2]; 150 mg HT/d) was 1.070. The “baseline-corrected fold-change vs placebo: annexin A2” value ([2]; 150 mg HT/d) was 1.047, the “baseline-corrected fold-change vs placebo: annexin A2 pseudogene 2” value ([2]; 150 mg HT/d) was 1.007 and the “baseline-corrected fold-change vs placebo: annexin A6” value ([2]; 150 mg HT/d) was 1.062. For the same compound, the “baseline-corrected fold-change vs placebo: annexin A11” value ([2]; 150 mg HT/d) was 1.065, the “baseline-corrected fold-change vs placebo: cadherin, EGF LAG seven-pass G-type receptor 2 (flamingo homolog, Drosophila)” value ([2]; 150 mg HT/d) was 1.030 and the “baseline-corrected fold-change vs placebo: calbindin 2” value ([2]; 150 mg HT/d) was 1.006. For the same compound, the “baseline-corrected fold-change vs placebo: calcineurin-like phosphoesterase domain containing 1” value ([2]; 150 mg HT/d) was 1.070, the “baseline-corrected fold-change vs placebo: calcium and integrin binding family member 2” value ([2]; 150 mg HT/d) was 1.114 and the “baseline-corrected fold-change vs placebo: calcium binding protein 4” value ([2]; 150 mg HT/d) was 1.024. The “baseline-corrected fold-change vs placebo: calcium binding protein 39” value ([2]; 150 mg HT/d) was 1.082, the “baseline-corrected fold-change vs placebo: calcium channel, voltage-dependent, L type, alpha 1S subunit” value ([2]; 150 mg HT/d) was 1.080 and the “baseline-corrected fold-change vs placebo: calcium channel, voltage-dependent, beta 1 subunit” value ([2]; 150 mg HT/d) was 1.125. For the same compound, the “baseline-corrected fold-change vs placebo: calcium channel, voltage-dependent, gamma subunit 1” value ([2]; 150 mg HT/d) was 1.087, the “baseline-corrected fold-change vs placebo: calcium channel, voltage-dependent, gamma subunit 6” value ([2]; 150 mg HT/d) was 1.178 and the “baseline-corrected fold-change vs placebo: calcium/calmodulin-dependent protein kinase II delta” value ([2]; 150 mg HT/d) was 1.113. The “baseline-corrected fold-change vs placebo: calcium/calmodulin-dependent protein kinase kinase 2, beta” value ([2]; 150 mg HT/d) was 1.033, the “baseline-corrected fold-change vs placebo: calmodulin 1 (phosphorylase kinase, delta)” value ([2]; 150 mg HT/d) was 1.153 and the “baseline-corrected fold-change vs placebo: calmodulin 3 (phosphorylase kinase, delta)” value ([2]; 150 mg HT/d) was 1.041. The “baseline-corrected fold-change vs placebo: calmodulin regulated spectrin-associated protein 1” value ([2]; 150 mg HT/d) was 1.089, the “baseline-corrected fold-change vs placebo: calnexin” value ([2]; 150 mg HT/d) was 1.066 and the “baseline-corrected fold-change vs placebo: calpain 2, (m/II) large subunit” value ([2]; 150 mg HT/d) was 1.053. The “baseline-corrected fold-change vs placebo: calpain 3, (p94)” value ([2]; 150 mg HT/d) was 1.082, the “baseline-corrected fold-change vs placebo: calreticulin” value ([2]; 150 mg HT/d) was 1.044 and the “baseline-corrected fold-change vs placebo: protein phosphatase 3, catalytic subunit, alpha isozyme” value ([2]; 150 mg HT/d) was 1.048. The “baseline-corrected fold-change vs placebo: regulator of calcineurin 1” value ([2]; 150 mg HT/d) was 1.009, the “baseline-corrected fold-change vs placebo: ryanodine receptor 3” value ([2]; 150 mg HT/d) was 1.355 and the “baseline-corrected fold-change vs placebo: striatin, calmodulin binding protein 3” value ([2]; 150 mg HT/d) was 1.024. The GSH (GSH and MDA in LTE rats) was “no effect” and the MDA (GSH and MDA in LTE rats) was “no effect”.
